“Also recorded” adds a separate entry of the source.
Columns and labels:
[1] = tested on: spinal nerve–ligated neuropathic rats; test: Acute spinal neurotoxicity (flaccid paralysis and death) after intrathecal injection; format: in vivo, rat
Procedure: (§1) An 18-cm polyethylene catheter (PE-10: 0.28-mm inner diameter and 0.61-mm outer diameter, Clay Adams, Parsippany, NJ, USA) with a volume of 13 μL was inserted into the lumbar level of the spinal cord as described elsewhere under inhalational isoflurane anesthesia (4% for induction and 1% for maintenance) run by an anesthesia meter (Ugo Basile Gas Anesthesia System, Comerio, Italy). Two days after recovery from anesthesia, the placement of the catheter in the spinal cord was verified by administration of 4% lidocaine (10 μL, followed by 15 μL of saline for flushing). Rats that had no motor impairment after placement of the intrathecal catheter were considered for the study, and rats that developed immediate bilateral paralysis of the hindlimbs after intrathecal administration of lidocaine were selected for the study. For intrathecal administration of the control and test articles, 10 μL of each drug was injected with a 50-μL microinjector (Shanghai Anting Micro-Injector Factory, Shanghai, China) and was flushed with 15 μL of normal saline solution.
Survival and abnormal motor-blockade behaviors, including asthma, abdominal breathing, locomotion difficulty, and paralysis, were continuously monitored for 24 h after the treatment, with special attention given during the first 4 h. Paralysis was defined as an inability to negotiate a 60-degree inclined plane ([Durant and Yaksh, 1986]). Death was defined as respiratory arrest over a period of 5 min. The paralysis and mortality rates and their latencies were quantitatively recorded and tabulated.
(§2) The percentage of maximal possible effect (% MPE) was calculated using the following formula: (postdrug threshold in ipsilateral hindlimb – baseline threshold in ipsilateral hindlimb)/(baseline threshold in contralateral hindlimb – baseline threshold in ipsilateral hindlimb) × 100 ([Bowersox et al., 1996]). A % MPE value near 100 indicates normal mechanical thresholds (i.e., near contralateral thresholds), and a value near 0 indicates allodynia. For the dose-response curve analysis, the parameters (i.e., minimum effect; Emax, median effective concentration or dose, or median toxic or lethal dose [EC50, ED50, TD50, or LD50], and Hill coefficient [n]) were calculated from the individual dose-response curves using the Prism program (version 5.01, GraphPad Software, San Diego, CA, USA). To determine the parameters of the dose-response curves, the values of response (Y) were fitted by non-linear least-squares curves to the relation Y = a + bx, where x = [D]^n/(ED50^n + [D]^n), [C]^n/(EC50^n + [C]^n), [D]^n/(TD50^n + [D]^n) or [D]^n/(LD50^n + [D]^n), to give each value of ED50, EC50, TD50, or LD50 and b (Emax) yielding a minimum residual sum of squares of deviations from the theoretical curve ([Wang and Pang, 1993]).

mice = settings: intravenous injection in mice; ref Mizugaki and Ito, 2005; cited from earlier work
[2] = tested on: mechanical allodynia in spinal L5/L6 nerve–ligated neuropathic rats; test: Mechanical allodynia (von Frey paw withdrawal threshold) after intrathecal injection in spinal nerve-ligated neuropathic rats; format: in vivo, rat
Procedure: as §1
To induce hypersensitivity to neuropathic pain, the rats were subjected to spinal nerve ligation as previously described [Kim and Chung (1992)] and [Zhang et al. (2013)]. Unilateral ligation of the L5 and L6 spinal nerves was performed under inhalational isoflurane anesthesia (4% for induction and 1% for maintenance) run by an anesthesia meter (Ugo Basile Gas Anesthesia System). The left L5 and L6 spinal nerves were isolated and tightly ligated with 6-0 silk thread. After ligation, the wound was sutured and the rats were returned to their home cages for recovery. After spinal nerve ligation, only those rats with marked unilateral allodynia to mechanical stimulation (i.e., a hindpaw withdrawal threshold of less than 8 g on the operated side) and with no major impairment were included in the study. Drug testing started 2–4 weeks after spinal nerve ligation.
To evaluate mechanical allodynia, the animals were acclimatized for at least 30 min to the test environment, namely, a plexiglass box on a metal grid (0.5 cm × 0.5 cm). The hindpaw withdrawal threshold was measured with a 2450 CE Electronic von Frey hair (IITC Life Science Inc, Woodland Hill, CA, USA). An electronic handheld transducer with a No. 15 monofilament was applied perpendicularly to the medial surface of the hindpaws with increasing force (ranging from 0.1 to 90 g) until the rat suddenly withdrew or licked the hindpaw. The lowest force that produced a withdrawal response was considered to be the threshold, which was the mean of three repeated measurements made in a 5-min interval.
as §2

[3] = intrathecal bolus, observed 24 h

CCN1C[C@]2(COC)[C@H](O)C[C@H](OC)[C@@]34[C@@H]5C[C@@]6(O)[C@H](OC(=O)c7ccccc7)[C@@H]5[C@@](OC(C)=O)([C@@H]([C@H](OC)[C@H]23)[C@@H]14)[C@@H](O)[C@@H]6OC [Aconitine, aconitine]
Duration of toxic motor-blockade behavior ([1]; intrathecal): 5 to 10 min
Latency of toxic motor-blockade behavior ([1]; intrathecal): 2 to 3 min
Death latency ([1]; intrathecal 0.25 μg): 13.6 min
Paralysis latency ([1]; intrathecal 0.25 μg): 2.3 ± 0.7 min
Death latency ([1]; intrathecal 0.32 μg): 12.4 ± 2.3 min
Paralysis latency ([1]; intrathecal 0.32 μg): 2.5 ± 0.8 min
Death latency ([1]; intrathecal 0.4 μg): 10.0 ± 3.3 min
Paralysis latency ([1]; intrathecal 0.4 μg): 2.6 ± 1.2 min
LD50 (mortality) [1, 3]: 0.6 nmol
TD50 (for flaccid paralysis) [1, 3]: 0.4 nmol
Normalized TD50 ([1]; intrathecal, average of TD50 (paralysis) and LD50): 0.5 nmol
LD50 (mice): 0.12 mg/kg
Anti-allodynic effect in ipsilateral paws ([2]; intrathecal 100 ng): marked and reversible anti-allodynic effect; also recorded: marked and reversible anti-allodynia
Time of peak effect on mechanical allodynia and heat hyperalgesia ([2]; intrathecal, ipsilateral paws, after injection): 1 h
Emax, blockade of mechanical allodynia ([2]; intrathecal, 1 h after injection): 61.9 % MPE
ED50, blockade of mechanical allodynia ([2]; intrathecal, % MPE at 1 h after injection): 39 pmol
Effect on withdrawal responses in the contralateral paws ([2]; intrathecal, mechanical and thermal stimuli): did not significantly alter the withdrawal responses in the contralateral paws
